# Values joined by “and” are separate entries in the source; they are usually repeats but may differ in a detail not shown here. Equal values may be shown once.
# Assays:
# [1] = test system: U87 glioblastoma; assay: MTT growth inhibition assay, 72 h; type: cell-based, human
# [2] = test system: MCF-7 breast; assay: MTT growth inhibition assay, 72 h; type: cell-based, human; details: for GI50: MTT, 72 h
# [3] = test system: A2780 ovarian; assay: MTT growth inhibition assay, 72 h; type: cell-based, human
# [4] = test system: H460 lung; assay: MTT growth inhibition assay, 72 h; type: cell-based, human
# [5] = test system: A431 skin; assay: MTT growth inhibition assay, 72 h; type: cell-based, human
# [6] = test system: Du145 prostate; assay: MTT growth inhibition assay, 72 h; type: cell-based, human; details: for GI50: MTT, 72 h
# [7] = test system: BE2-C neuroblastoma; assay: MTT growth inhibition assay, 72 h; type: cell-based, human
# [8] = test system: SJ-G2 glioblastoma; assay: MTT growth inhibition assay, 72 h; type: cell-based, human
# [9] = test system: non-tumor-derived MCF10A breast line; assay: MTT growth inhibition assay, 72 h; type: cell-based, human
# [10] = test system: ADDP ovarian (cisplatin-resistant A2780 clone); assay: MTT growth inhibition assay, 72 h; type: cell-based, human; details: MTT, 72 h
# [11] = test system: panel of cell lines; assay: MTT growth inhibition assay, 72 h, over the cell line panel; type: cell-based, human; details: average over all cell lines tested; read-out: Average GI50 Values
# [12] = test system: HT29 colon cells; assay: ROS detection assay (DCFH-DA fluorescence); type: cell-based, human; details: compounds at GI50 concentration, TBHP and NAC 20 μM
# Protocol: HT29 colon cells were stained by DCFH-DA and then treated with the compounds at each specific GI50 concentration. Upon ROS production, the DCFH-DA produced […], a fluorescent product. The measured fluorescence was, therefore, proportional to the produced ROS. […] 56CLB at 24 h reported 395 RFU, 437 RFU at 48 h, and 558 RFU at 72 h (Table 6, Figure 14 and Figure S42), respectively, showing a significant production of ROS in comparison to control cells. 5CLB at 24 h produced 337 RFU, 324 RFU at 48 h, and 376 RFU at 72 h (Table 6, Figure 14 and Figure S42), respectively.
# To investigate for the presence of ROS in treated cells, DCFDA/H2DCFDA-cellular ROS Assay Kit (Abcam, Cambridge, MA, USA) was used, as described. A total of 25,000 cells/mL of HT29 cells in DMEM were seeded in 96-well plates. Cells were washed with 1X kit buffer, then stained with 25 μM 2’,7’-dichlorofluorescein diacetate (DCFH-DA) and incubated for 45 min. DCFH-DA was then removed, and cells were then re-washed with 1X kit buffer, after which phenol red free media was added. Cells were then treated with GI50 drug concentration for each complex. The plates were directly scanned to measure fluorescence (relative fluorescence units (RFU)) at different time points using the Glo-Max®-Multimode microplate reader (Promega Corporation, Alexandra, VIC, Australia) at an excitation/emission of 485/535 nm. To generate the positive control (20 μM tert-butyl hydroperoxide (TBHP)), cells were washed with 1X kit buffer, and stained with DCFDA (25 μM) for 45 min. DCFDA was then removed and TBHP was added in phenol red free media. The plate was scanned to measure the RFU at different time points as mentioned above. The same method applies for the negative control treated with 20 μM N-acetylcysteine (NAC).
# [13] = Lipophilicity by HPLC (log kw); type: physicochemical; details: chromatographic lipophilicity index, extrapolated to 100% d.i.H2O
# Excerpt: For lipophilicity measurements, HPLC was utilized instead of the traditional shake-flask method, as described. A few studies have also reported the important and effective use of HPLC to measure the lipophilicity of compounds [66, 67]. Each complex was eluted under several isocratic ratios. A standard curve was then generated to calculate the log value of the capacity factor (log k) according to eqn (1). Following eqn (2), the percentage of organic solvent (CH3CN) in the mobile phase from each isocratic run was plotted against […] (Figure S34). Since log kw is the chromatographic lipophilicity index or measure of lipophilicity of the complex, a higher value corresponds to greater lipophilicity. Since PCLB, 5CLB, and 56CLB are structurally related, there were no significant variations in lipophilicity noted based on the calculated log kw values (Table 4). It is evident that PCLB is the least lipophilic of the group, with a calculated log kw value of 1.80, which is likely due to the absence of methyl groups in its phenanthroline system. 5CLB and 56CLB were the most lipophilic of the group with calculated log kw values of 1.90 and 1.87, respectively, and this is due to the presence of methyl substituents in their phenanthroline systems. […] Additionally, the chromatographic lipophilicity index of CLB was also measured using the abovementioned method, with a calculated log kw of 1.88, which is within the range observed for PCLB, 5CLB, and 56CLB. However, CLB was approximately 1-fold more lipophilic than PCLB. […] The order of increasing lipophilicity is […].
# For lipophilicity measurements, analytical HPLC was utilized. Elution profiles were acquired on an Agilent Technologies 1260 Infinity instrument equipped with a Phenomenex Onyx^TM Monolithic C18-reverse phase column (100 × 4.6 mm, 5 µm pore size). The mobile phase consisted of solvents, A (0.06% TFA in d.i.H2O) and B (0.06% TFA in CH3CN/d.i.H2O (90:10)). Potassium iodide was used as an external dead volume marker to determine the dead time of the column. Retention times (TR) were measured at varying isocratic ratios ranging from 42% to 48% of solvent B at 1 mL/min. An injection volume of 10 µL was utilized. Capacity factors were determined according to Equation (1):(1) k=(TR−T0)/T0, where k is the capacity factor, TR is the retention time of the analyte, and T0 represents the dead time. A minimum of four different mobile compositions were used for each complex to calculate k. A linear plot was generated of log k against the concentration of CH3CN in the mobile phase to determine the value of log kw expressed by Equation (2):(2) logk=Sφ+logkw, where S is the slope, φ is the concentration of the CH3CN in the mobile phase and log kw represents the capacity factor of the complex in 100% d.i.H2O. […]
smiles,measurement,setting,value
"Cc1cc2cccnc2c2ncccc12.N[C@H]1CCCC[C@@H]1N.O=C([O-])CCCc1ccc(N(CCCl)CCCl)cc1.O=[N+]([O-])[O-].O=[N+]([O-])[O-].[OH-].[Pt+4] [5CLB, [Pt^IV(5-methyl-1,10-phenanthroline)(S,S-DACH)(CLB)(OH)](NO3)2]",GI50,[1],250 ± 0.015 nM
same,fold by which the cisplatin prodrug incorporating two CLB ligands (Ma et al.) is less potent,[2]; MCF-7 cell line,12 fold
same,GI50,[2],180 ± 0.017 nM
same,GI50,[3],46 ± 0.015 nM
same,GI50,[4],39 ± 0.013 nM
same,GI50,[5],90 ± 0.015 nM
same,GI50,[6],14 ± 0.004 nM
same,GI50,[7],230 ± 0.039 nM
same,GI50,[8],180 ± 0.02 nM
same,GI50,[9],22 ± 0.0045 nM
same,GI50,[10],26 ± 0.0064 nM
same,GI50,[11],94 ± 0.01 nM
same,ROS Production,[12]; 24 h,337 RFU and 337 ± 8 RFU
same,ROS Production,[12]; 48 h,324 RFU and 324 ± 5 RFU
same,ROS Production,[12]; 72 h,376 RFU and 376 ± 1 RFU
same,log kw,[13],1.90 and 1.87
"Cc1c(C)c2cccnc2c2ncccc12.N[C@H]1CCCC[C@@H]1N.O=C([O-])CCCc1ccc(N(CCCl)CCCl)cc1.O=[N+]([O-])[O-].O=[N+]([O-])[O-].[OH-].[Pt+4] [56CLB, [Pt^IV(5,6-dimethyl-1,10-phenanthroline)(S,S-DACH)(CLB)(OH)](NO3)2]",GI50,[1],93 ± 0.0067 nM
same,fold more potent than oxaliplatin-CLB prodrug of Qin et al.,[2],~200 fold
same,fold by which the cisplatin prodrug incorporating two CLB ligands (Ma et al.) is less potent,[2]; MCF-7 cell line,35 fold
same,fold more potent than cisplatin-CLB prodrug of Qin et al.,[2]; MCF-7 cell line,about 63 fold
same,GI50,[2],63 ± 0.015 nM
same,GI50,[3],21 ± 0.0047 nM
same,GI50,[4],13 ± 0.0056 nM
same,GI50,[5],34 ± 0.0037 nM
same,fold increase in potency compared to CLB,[6]; Du145 prostate cell line,"10,000 fold"
same,fold more potent than cisplatin,[6]; Du145 prostate cell line,at least 440 fold
same,GI50,[6],3 nM and 2.7 nM
same,GI50,[7],140 ± 0.012 nM
same,GI50,[8],130 ± 0.03 nM
same,GI50,[9],7 ± 0.004 nM
same,GI50,[10],10 ± 0.0028 nM
same,GI50,[11],40 nM and 44 nM
same,ROS Production,[12]; 24 h,395 RFU and 395 ± 3 RFU
same,ROS Production,[12]; 48 h,437 RFU and 437 ± 2 RFU
same,ROS Production,[12]; 72 h,558 RFU and 558 ± 2 RFU
same,log kw,[13],1.87 and 1.90
"O=C(CCCc1ccc(N(CCCl)CCCl)cc1)[O][Pt-2]12([OH])([NH2+][C@H]3CCCC[C@@H]3[NH2+]1)[n+]1cccc3ccc4ccc[n+]2c4c31.O=[N+]([O-])[O-].O=[N+]([O-])[O-] [PCLB, [Pt^IV(1,10-phenanthroline)(S,S-DACH)(CLB)(OH)](NO3)2]",GI50,[1],1200 ± 0.28 nM
same,fold by which the cisplatin prodrug incorporating two CLB ligands (Ma et al.) is less potent,[2]; MCF-7 cell line,3 fold
same,GI50,[2],680 ± 0.043 nM
same,GI50,[3],300 ± 0.048 nM
same,GI50,[4],460 ± 0.063 nM
same,GI50,[5],510 ± 0.1 nM
same,GI50,[6],210 ± 0.12 nM
same,GI50,[7],440 ± 0.03 nM
same,GI50,[8],320 ± 0.04 nM
same,GI50,[9],300 ± 0.045 nM
same,GI50,[10],290 ± 0.037 nM
same,GI50,[11],423 ± 0.07 nM
same,ROS Production,[12]; 24 h,190 RFU and 190 ± 2 RFU
same,ROS Production,[12]; 48 h,244 RFU and 244 ± 7 RFU
same,ROS Production,[12]; 72 h,285 RFU and 285 ± 3 RFU
same,log kw,[13],1.80

# Source: article PMC9499463, “Potent Chlorambucil-Platinum(IV) Prodrugs” (International Journal of Molecular Sciences, 2022)
